Data on 28 compounds can be found in patent publication US12338237B2, “Derivatives having 1,2,3,4-tetrahydronaphthalene moiety or pharmaceutically acceptable salt thereof and pharmaceutical compositions comprising the same” (YUHAN CORPORATION, priority 2019, dated 2025).

Molecules are shown by their SMILES. pIC50: −log10 of the molar value. Like-named read-outs stand apart in the source and are kept apart here.

For assay [1], the target named is glucosylceramide synthase (GCS) (Homo sapiens (Human), UniProt Q16739). Put plainly: Evaluation of inhibitory activities against GCS (enzyme reaction with A549 cell lysate, NBD C6-ceramide, HPLC fluorescence). Type of assay: biochemical. To be noted: GCS activity in A549 cell lysate, 37° C. for 90 minutes. In a few lines:
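Lysate of A549 cells in 50 mM HEPES pH 7.3 incubated with test compound and NBD C6-ceramide at 37 °C for 90 min; lipids extracted with chloroform/methanol and GlcCer and ceramide peaks quantified by HPLC fluorescence. Activity from GlcCer area fraction, normalised between DMSO and ibiglustat controls.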

In another assay the test system is GM1 production. Put plainly: cells. It is filed as cell-based.

Sequence of glucosylceramide synthase (GCS) (Q16739 whole entry, looked up): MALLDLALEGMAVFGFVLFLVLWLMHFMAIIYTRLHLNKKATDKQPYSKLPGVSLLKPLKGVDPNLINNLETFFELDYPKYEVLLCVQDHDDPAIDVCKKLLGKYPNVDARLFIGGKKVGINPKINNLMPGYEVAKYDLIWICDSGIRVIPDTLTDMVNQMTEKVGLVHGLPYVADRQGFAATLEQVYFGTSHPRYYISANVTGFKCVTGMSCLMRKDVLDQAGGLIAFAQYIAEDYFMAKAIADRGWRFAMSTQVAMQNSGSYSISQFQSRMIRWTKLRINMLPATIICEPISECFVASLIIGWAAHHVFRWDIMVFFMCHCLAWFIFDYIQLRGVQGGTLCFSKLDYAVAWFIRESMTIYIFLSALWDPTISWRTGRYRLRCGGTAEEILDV

As usually defined, the pIC50 is the IC50 on a negative log10 scale, so that one unit is a factor of ten. With `COCCOc1ccccc1-c1ccc2c(c1)CCC(C)(C)C2NC(=O)O[C@@H]1CN2CCC1CC2` (stereo partly drawn) [Example 112, (S)-quinuclidin-3-yl (6-(2-(2-methoxyethoxy)phenyl)-2,2-dimethyl-1,2,3,4-tetrahydronaphthalen-1-yl)carbamate], the pIC50 in assay [1] is 8.43; in the assay on GM1 production (Homo sapiens, Jurkat, 72 h), 9.10.
Turning to `COCOc1ccc(-c2ccc3c(c2)CCC(C)(C)C3NC(=O)O[C@@H]2CN3CCC2CC3)cc1` (stereo partly drawn) [Example 113, (S)-quinuclidin-3-yl (6-(4-(methoxymethoxy)phenyl)-2,2-dimethyl-1,2,3,4-tetrahydronaphthalen-1-yl)carbamate], the negative-log IC50 (pIC50) was 9.03 in assay [1] and 9.02 with GM1 production (Homo sapiens, Jurkat, 72 h).
As for `COCOc1cccc(-c2ccc3c(c2)CCC(C)(C)C3NC(=O)O[C@@H]2CN3CCC2CC3)c1` (stereo partly drawn) [Example 114, (S)-quinuclidin-3-yl (6-(3-(methoxymethoxy)phenyl)-2,2-dimethyl-1,2,3,4-tetrahydronaphthalen-1-yl)carbamate], the negative-log IC50 (pIC50) in assay [1] was 8.74; in the assay with GM1 production (Homo sapiens, Jurkat, 72 h) it was 8.89.
For the compound `COCOc1ccccc1-c1ccc2c(c1)CCC(C)(C)C2NC(=O)O[C@@H]1CN2CCC1CC2` (stereo partly drawn) [Example 115, (S)-quinuclidin-3-yl (6-(2-(methoxymethoxy)phenyl)-2,2-dimethyl-1,2,3,4-tetrahydronaphthalen-1-yl)carbamate], the pIC50 was 8.93 in assay [1] and 9.25 in the assay on GM1 production (Homo sapiens, Jurkat, 72 h).
Turning to `COc1cc(-c2ccc3c(c2)CCC(C)(C)C3NC(=O)O[C@@H]2CN3CCC2CC3)ccn1` (stereo partly drawn) [Example 116, (S)-quinuclidin-3-yl (6-(2-methoxypyridin-4-yl)-2,2-dimethyl-1,2,3,4-tetrahydronaphthalen-1-yl)carbamate], the pIC50 is 8.06 in assay [1] and 8.11 with GM1 production (Homo sapiens, Jurkat, 72 h).
Take `Cc1cc(-c2ccc3c(c2)CCC(C)(C)C3NC(=O)O[C@@H]2CN3CCC2CC3)ccn1` (stereo partly drawn) [Example 117, (S)-quinuclidin-3-yl (2,2-dimethyl-6-(2-methylpyridin-4-yl)-1,2,3,4-tetrahydronaphthalen-1-yl)carbamate]: the pIC50 is 7.52 in assay [1] and 7.42 in the assay on GM1 production (Homo sapiens, Jurkat, 72 h).
Regarding `CC1(C)CCc2cc(-c3ccnc(F)c3)ccc2C1NC(=O)O[C@@H]1CN2CCC1CC2` (stereo partly drawn) [Example 118, (S)-quinuclidin-3-yl (6-(2-fluoropyridin-4-yl)-2,2-dimethyl-1,2,3,4-tetrahydronaphthalen-1-yl)carbamate], the pIC50 in assay [1] is 7.77; in the assay with GM1 production (Homo sapiens, Jurkat, 72 h), 7.91.
With `CC1(C)CCc2cc(-c3ccnc(C(F)(F)F)c3)ccc2C1NC(=O)O[C@@H]1CN2CCC1CC2` (stereo partly drawn) [Example 119, (S)-quinuclidin-3-yl (2,2-dimethyl-6-(2-(trifluoromethyl)pyridin-4-yl)-1,2,3,4-tetrahydronaphthalen-1-yl) carbamate], the pIC50 is 7.95 in assay [1] and 8.73 with GM1 production (read-out: IC50).
For the compound `COc1ccc(-c2ccc3c(c2)CCC(C)(C)C3NC(=O)O[C@@H]2CN3CCC2CC3)cc1` (stereo partly drawn) [Example 120, (S)-quinuclidin-3-yl (6-(4-methoxyphenyl)-2,2-dimethyl-1,2,3,4-tetrahydronaphthalen-1-yl)carbamate], the negative logarithm of the IC50 (pIC50) in assay [1] is 8.25; in the assay on GM1 production (Homo sapiens, Jurkat, 72 h), 8.74.
In the case of `COc1cccc(-c2ccc3c(c2)CCC(C)(C)C3NC(=O)O[C@@H]2CN3CCC2CC3)c1` (stereo partly drawn) [Example 121, (S)-quinuclidin-3-yl (6-(3-methoxyphenyl)-2,2-dimethyl-1,2,3,4-tetrahydronaphthalen-1-yl)carbamate], the negative logarithm of the IC50 (pIC50) in assay [1] was 8.26; in the assay with GM1 production (Homo sapiens, Jurkat, 72 h), 10.41.
On to `CCOc1cccc(-c2ccc3c(c2)CCC(C)(C)C3NC(=O)O[C@@H]2CN3CCC2CC3)c1` (stereo partly drawn) [Example 122, (S)-quinuclidin-3-yl (6-(3-ethoxyphenyl)-2,2-dimethyl-1,2,3,4-tetrahydronaphthalen-1-yl)carbamate], for which the pIC50 in assay [1] is 8.47; with GM1 production (Homo sapiens, Jurkat, 72 h) it was 9.11.
Turning to `COc1ccc(-c2ccc3c(c2)CCC(C)(C)C3NC(=O)O[C@@H]2CN3CCC2CC3)c(Cl)c1` (stereo partly drawn) [Example 123, (S)-quinuclidin-3-yl (6-(2-chloro-4-methoxyphenyl)-2,2-dimethyl-1,2,3,4-tetrahydronaphthalen-1-yl)carbamate], the negative-log IC50 (pIC50) in assay [1] was 9.01; in the assay with GM1 production (Homo sapiens, Jurkat, 72 h), 8.84.
In the case of `COc1cc(-c2ccc3c(c2)CCC(C)(C)C3NC(=O)O[C@@H]2CN3CCC2CC3)ccc1Cl` (stereo partly drawn) [Example 124, (S)-quinuclidin-3-yl (6-(4-chloro-3-methoxyphenyl)-2,2-dimethyl-1,2,3,4-tetrahydronaphthalen-1-yl)carbamate], the pIC50 is 8.80 in assay [1] and 8.47 with GM1 production (Homo sapiens, Jurkat, 72 h).
Regarding `COc1ccc(Cl)c(-c2ccc3c(c2)CCC(C)(C)C3NC(=O)O[C@@H]2CN3CCC2CC3)c1` (stereo partly drawn) [Example 125, (S)-quinuclidin-3-yl (6-(2-chloro-5-methoxyphenyl)-2,2-dimethyl-1,2,3,4-tetrahydronaphthalen-1-yl)carbamate], the pIC50 in assay [1] is 8.96; in the assay with GM1 production (Homo sapiens, Jurkat, 72 h), 8.69.
For the compound `COc1ccc(-c2ccc3c(c2)CCC(C)(C)C3NC(=O)O[C@@H]2CN3CCC2CC3)cc1F` (stereo partly drawn) [Example 126, (S)-quinuclidin-3-yl (6-(3-fluoro-4-methoxyphenyl)-2,2-dimethyl-1,2,3,4-tetrahydronaphthalen-1-yl)carbamate], the pIC50 in assay [1] was 9.08; in the assay on GM1 production (Homo sapiens, Jurkat, 72 h) it was 8.72.
`CCc1cccc(-c2ccc3c(c2)CCC(C)(C)C3NC(=O)O[C@@H]2CN3CCC2CC3)c1` (stereo partly drawn) [Example 127, (S)-quinuclidin-3-yl (6-(3-ethylphenyl)-2,2-dimethyl-1,2,3,4-tetrahydronaphthalen-1-yl)carbamate]: the negative-log IC50 (pIC50) in assay [1] was 8.72; with GM1 production (Homo sapiens, Jurkat, 72 h) it was 8.70.
In the case of `CC(C)(C)c1cccc(-c2ccc3c(c2)CCC(C)(C)C3NC(=O)O[C@@H]2CN3CCC2CC3)c1` (stereo partly drawn) [Example 128, (S)-quinuclidin-3-yl (6-(3-(tert-butyl)phenyl)-2,2-dimethyl-1,2,3,4-tetrahydronaphthalen-1-yl)carbamate], the pIC50 in assay [1] is 8.55; in the assay with GM1 production (Homo sapiens, Jurkat, 72 h) it was 8.89.
On the same counts, the results for `CC(C)c1cccc(-c2ccc3c(c2)CCC(C)(C)C3NC(=O)O[C@@H]2CN3CCC2CC3)c1` (stereo partly drawn) [Example 129, (S)-quinuclidin-3-yl (6-(3-isopropylphenyl)-2,2-dimethyl-1,2,3,4-tetrahydronaphthalen-1-yl)carbamate] are 8.68 and 8.89.
On to `CC1(C)CCc2cc(-c3cccc(C(F)F)c3)ccc2C1NC(=O)O[C@@H]1CN2CCC1CC2` (stereo partly drawn) [Example 130, (S)-quinuclidin-3-yl (6-(3-(difluoromethyl)phenyl)-2,2-dimethyl-1,2,3,4-tetrahydronaphthalen-1-yl)carbamate], for which the pIC50 in assay [1] is 8.91; with GM1 production (Homo sapiens, Jurkat, 72 h), 8.89.
With `CN(C)c1cccc(-c2ccc3c(c2)CCC(C)(C)C3NC(=O)O[C@@H]2CN3CCC2CC3)c1` (stereo partly drawn) [Example 131, (S)-quinuclidin-3-yl (6-(3-(dimethylamino)phenyl)-2,2-dimethyl-1,2,3,4-tetrahydronaphthalen-1-yl)carbamate], the pIC50 in assay [1] is 8.83; in the assay with GM1 production (Homo sapiens, Jurkat, 72 h), 8.64.
On the same counts, the results for `CC(C)Oc1cccc(-c2ccc3c(c2)CCC(C)(C)C3NC(=O)O[C@@H]2CN3CCC2CC3)c1` (stereo partly drawn) [Example 132, (S)-quinuclidin-3-yl (6-(3-isopropoxyphenyl)-2,2-dimethyl-1,2,3,4-tetrahydronaphthalen-1-yl)carbamate] are 8.94 and 8.70.
On to `COc1cccc(-c2ccc3c(c2)CCC(C)(C)C3NC(=O)O[C@@H]2CN3CCC2CC3)c1OC` (stereo partly drawn) [Example 133, (S)-quinuclidin-3-yl (6-(2,3-dimethoxyphenyl)-2,2-dimethyl-1,2,3,4-tetrahydronaphthalen-1-yl)carbamate], for which the pIC50 in assay [1] is 8.98; with GM1 production (Homo sapiens, Jurkat, 72 h), 9.00.
With `COc1ccc(-c2ccc3c(c2)CCC(C)(C)C3NC(=O)O[C@@H]2CN3CCC2CC3)c(OC)c1` (stereo partly drawn) [Example 134, (S)-quinuclidin-3-yl (6-(2,4-dimethoxyphenyl)-2,2-dimethyl-1,2,3,4-tetrahydronaphthalen-1-yl)carbamate], the pIC50 in assay [1] is 8.53; with GM1 production (Homo sapiens, Jurkat, 72 h) it was 8.18.
On the same counts, the results for `COc1ccc(OC)c(-c2ccc3c(c2)CCC(C)(C)C3NC(=O)O[C@@H]2CN3CCC2CC3)c1` (stereo partly drawn) [Example 135, (S)-quinuclidin-3-yl (6-(2,5-dimethoxyphenyl)-2,2-dimethyl-1,2,3,4-tetrahydronaphthalen-1-yl)carbamate] are 8.55 and 8.08.
As for `COc1cccc(OC)c1-c1ccc2c(c1)CCC(C)(C)C2NC(=O)O[C@@H]1CN2CCC1CC2` (stereo partly drawn) [Example 136, (S)-quinuclidin-3-yl (6-(2,6-dimethoxyphenyl)-2,2-dimethyl-1,2,3,4-tetrahydronaphthalen-1-yl)carbamate], the pIC50 in assay [1] is 8.04; in the assay with GM1 production (Homo sapiens, Jurkat, 72 h), 7.67.
Regarding `COc1ccc(-c2ccc3c(c2)CCC(C)(C)C3NC(=O)O[C@@H]2CN3CCC2CC3)cc1OC` (stereo partly drawn) [Example 137, (S)-quinuclidin-3-yl (6-(3,4-dimethoxyphenyl)-2,2-dimethyl-1,2,3,4-tetrahydronaphthalen-1-yl)carbamate], the negative-log IC50 (pIC50) was 8.67 in assay [1] and 8.08 with GM1 production (Homo sapiens, Jurkat, 72 h).
On the same counts, the results for `COc1cc(OC)cc(-c2ccc3c(c2)CCC(C)(C)C3NC(=O)O[C@@H]2CN3CCC2CC3)c1` (stereo partly drawn) [Example 138, (S)-quinuclidin-3-yl (6-(3,5-dimethoxyphenyl)-2,2-dimethyl-1,2,3,4-tetrahydronaphthalen-1-yl)carbamate] are 8.92 and 8.42.
For `COc1ccc(-c2ccc3c(c2)CCC(C)(C)C3NC(=O)O[C@@H]2CN3CCC2CC3)cc1Cl` (stereo partly drawn) [Example 139, (S)-quinuclidin-3-yl (6-(3-chloro-4-methoxyphenyl)-2,2-dimethyl-1,2,3,4-tetrahydronaphthalen-1-yl)carbamate], the pIC50 in assay [1] was 8.32; in the assay on GM1 production (Homo sapiens, Jurkat, 72 h), 8.06.
